According to patent US9758492B2, “IDO inhibitors” (Bristol-Myers Squibb Company, priority 2013, dated 2017):

target: IDO (Homo sapiens, UniProt P14902); test: LLE_IDO_ABS_DR (IDO assay)
Sequence (P14902 whole entry): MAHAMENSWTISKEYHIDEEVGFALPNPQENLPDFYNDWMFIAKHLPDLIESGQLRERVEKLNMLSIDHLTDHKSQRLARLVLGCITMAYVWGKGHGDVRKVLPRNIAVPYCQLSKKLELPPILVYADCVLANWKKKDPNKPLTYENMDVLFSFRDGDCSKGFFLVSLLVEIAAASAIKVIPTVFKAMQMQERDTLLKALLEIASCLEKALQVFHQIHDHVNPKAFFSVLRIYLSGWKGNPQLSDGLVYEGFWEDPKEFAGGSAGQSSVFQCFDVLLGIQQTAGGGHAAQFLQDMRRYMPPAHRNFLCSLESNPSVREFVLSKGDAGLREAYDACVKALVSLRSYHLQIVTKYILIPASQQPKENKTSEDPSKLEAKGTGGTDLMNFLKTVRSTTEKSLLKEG

Row | Structure (SMILES) | IC50
1 | CCN(CCOC)c1ccc(-c2ccccc2C(=O)O)cc1NC(=O)Nc1ccc(C)cc1 [Example 72, 4′-(ethyl(2-methoxyethyl)amino)-3′-(3-p-tolylureido)biphenyl-2-carboxylic acid] | 850 nM
2 | C=C(C)CN(CC(F)(F)F)c1ccc(-c2ccccc2C(=O)O)cc1NC(=O)Nc1ccc(C)cc1 [Example 471] | 40 nM
3 | CC(C)CN(CCC1CC1)c1ccc(-c2cc(F)ccc2C(=O)O)cc1NC(=O)Nc1ccccc1F [Example 135, 4′-((2-cyclopropylethyl) (isobutyl)amino)-5-fluoro-3′-(3-(2-fluorophenyl)ureido)biphenyl-2-carboxylic acid] | 20 nM
4 | CCC1CCCCN1c1ccc(-c2ccccc2C(=O)O)cc1NC(=O)Nc1ccccc1F (stereo not drawn) [Example 116, 4′-(2-ethylpiperidin-1-yl)-3′-(3-(2-fluorophenyl)ureido) biphenyl-2-carboxylic acid] | 2340 nM
5 | Cc1ccc(NC(=O)Nc2cc(-c3cc(F)ccc3C(=O)O)ccc2N(CC(C)C)C2CCCC2)cc1 [Example 171, 4′-(cyclopentyl(isobutyl)amino)-5-fluoro-3′-(3-p-tolylureido)biphenyl-2-carboxylic acid] | 20 nM
6 | CCCCN(CCCC)c1ccc(-c2cc(F)ccc2C(=O)O)cc1NC(=O)Nc1ccc(C)cc1 [Example 90, 4′-(dibutylamino)-5-fluoro-3′-(3-p-tolylureido)biphenyl-2-carboxylic acid] | 10 nM
7 | CC(C)CN(CC(C)C)c1ccc(-c2ccccc2-c2nnn[nH]2)cc1NC(=O)Nc1cccc(OC(F)(F)F)c1 [Example 273, 1-(4-(diisobutylamino)-2′-(1H-tetrazol-5-yl)-[1,1′-biphenyl]-3-yl)-3-(3-(trifluoromethoxy)phenyl)urea] | 180 nM
8 | CC(C)CN(CC(C)C)c1ccc(-c2ccccc2-c2nnn[nH]2)cc1NC(=O)Nc1nccs1 [Example 7, 1-(4-(Diisobutylamino)-2′-(1H-tetrazol-5-yl)biphenyl-3-yl)-3-(thiazol-2-yl)urea] | 20 nM
9 | CC(C)CN(CC(C)C)c1ccc(-c2ccccc2-c2nnn[nH]2)cc1NC(=O)Nc1ncccn1 [Example 239, 1-(4-(Diisobutylamino)-2′-(1H-tetrazol-5-yl)-[1,1′-biphenyl]-3-yl)-3-(pyrimidin-2-yl)urea] | 3860 nM
10 | Cc1ccc(NC(=O)Nc2cc(-c3cc(F)ccc3C(=O)O)ccc2N(Cc2ccccc2)CC(F)F)cc1 [Example 21, 4′-(Benzyl(2,2-difluoroethyl)amino)-5-fluoro-3′-(3-(p-tolyl)ureido)-[1,1′-biphenyl]-2-carboxylic acid] | 150 nM
11 | O=C(Nc1ccc(OC(F)(F)F)cc1)Nc1cc(-c2ccccc2-c2nnn[nH]2)ccc1N(CCc1ccccc1)CCC(F)(F)F [Example 331, 1-(4-(phenethyl(3,3,3-trifluoropropyl)amino)-2′-(1H-tetrazol-5-yl)-[1,1′-biphenyl]-3-yl)-3-(4-(trifluoromethoxy)phenyl)urea] | 160 nM
12 | COc1ccc(-c2ccc(N(CC(C)C)CC(C)C)c(NC(=O)Nc3ccc(C)cc3)c2)c(NS(=O)(=O)C(F)(F)F)c1 [Example 71, N-(4′-(diisobutylamino)-4-methoxy-3′-(3-p-tolylureido)biphenyl-2-yl)-1,1,1-trifluoromethane-sulfonamide] | 1740 nM
13 | COCCN(Cc1ccc(Cl)cc1)c1ccc(-c2ccccc2C(=O)O)cc1NC(=O)Nc1ccc(C)cc1 [Example 192, 4′-((4-chlorobenzyl)(2-methoxyethyl)amino)-3′-(3-(p-tolyl)ureido)-[1,1′-biphenyl]-2-carboxylic acid] | 7.82 nM
14 | O=C(Nc1ccc(OC(F)(F)F)cc1)Nc1cc(-c2ccccc2-c2nnn[nH]2)ccc1N(CCC(F)(F)F)Cc1ccc(F)cc1 [Example 323, 1-(4-((4-fluorobenzyl)(3,3,3-trifluoropropyl)amino)-2′-(1H-tetrazol-5-yl)-[1,1′-biphenyl]-3-yl)-3-(4-(trifluoromethoxy)phenyl)urea] | 540 nM
15 | CC(C)CN(c1ccc(-c2ccccc2-c2nnn[nH]2)cc1NC(=O)Nc1ccccc1F)C(C)C [Example 153, 1-(2-fluorophenyl)-3-(4-(isobutyl (isopropyl)amino)-2′-(1H-tetrazol-5-yl)biphenyl-3-yl)urea] | 5.16 nM
16 | Cc1ccc(NC(=O)Nc2cc(-c3ccccc3C(=O)O)c(F)cc2N(CC(C)C)C2CCCCC2)cc1 [Example 225] | 2.52 nM
17 | CC(C)CN(CC(C)C)c1ccc(-c2ccccc2-c2nnn[nH]2)cc1NC(=O)NCC1CCCCC1 [Example 268, 1-(cyclohexylmethyl)-3-(4-(diisobutylamino)-2′-(1H-tetrazol-5-yl)-[1,1′-biphenyl]-3-yl)urea] | 830 nM
18 | CC(C)CN(CC(C)C)c1ccc(-c2ccccc2-c2nnn[nH]2)cc1NC(=O)Nc1ccc(F)cc1OC(C)C [Example 272, 1-(4-(diisobutylamino)-2′-(1H-tetrazol-5-yl)-[1,1′-biphenyl]-3-yl)-3-(4-fluoro-2-isopropoxyphenyl)urea] | 2720 nM

Row | Structure (SMILES) | IC50
19 | CC(C)CNC(=O)Nc1cc(-c2ccccc2-c2nnn[nH]2)ccc1N(CC(C)C)CC(C)C [Example 245, 1-(4-(diisobutylamino)-2′-(1H-tetrazol-5-yl)-[1,1′-biphenyl]-3-yl)-3-isobutylurea] | 180 nM
20 | CCCCN(c1ccc(-c2cc(F)ccc2C(=O)O)cc1NC(=O)Nc1ccc(C)cc1)C1CCCCC1 [Example 178, 4′-(butyl(cyclohexyl)amino)-5-fluoro-3′-(3-(p-tolyl)ureido)-[1,1′-biphenyl]-2-carboxylic acid] | 5.49 nM
21 | Cc1ccc(NC(=O)Nc2cc(-c3ccccc3-c3nnn[nH]3)ccc2N(CCC(F)(F)F)Cc2ccccc2)cc1 [Example 10, 1-(4-(Benzyl(3,3,3-trifluoropropyl)amino)-2′-(1H-tetrazol-5-yl)-[1,1′-biphenyl]-3-yl)-3-(p-tolyl)urea] | 100 nM
22 | CC(C)CN(CCC(C)C(F)(F)F)c1ccc(-c2ccccc2-c2nnn[nH]2)cc1NC(=O)Nc1ccccc1F (stereo not drawn) [Example 201, 1-(2-fluorophenyl)-3-(4-(isobutyl(4,4,4-trifluoro-3-methylbutyl)amino)-2′-(1H-tetrazol-5-yl)-[1,1′-biphenyl]-3-yl)urea] | 4.46 nM
23 | [2H]C([2H])(C(C)C)N(c1ccc(-c2ccccc2C(=O)O)cc1NC(=O)Nc1ccccc1F)C1CCCCC1 [Example 33, 4′-(Cyclohexyl(1,1-dideutero-2-methylpropyl)amino)-3′-(3-(2-fluorophenyl)ureido)biphenyl-2-carboxylic acid] | 4.99 nM
24 | Cc1ccc(NC(=O)Nc2cc(-c3ccccc3C(=O)O)ccc2N(CCC2CC2)CC(C)C)cc1 [Example 132, 4′-((2-cyclopropylethyl) (isobutyl)amino)-3′-(3-p-tolylureido) biphenyl-2-carboxylic acid] | 50 nM
25 | COCCN(Cc1ccc(Cl)cc1)c1ccc(-c2ccccc2-c2nnn[nH]2)cc1NC(=O)Nc1ccc(C)cc1 [Example 191, 1-(4-((4-chlorobenzyl)(2-methoxyethyl)amino)-2′-(1H-tetrazol-5-yl)-[1,1′-biphenyl]-3-yl)-3-(p-tolyl)urea] | 5.79 nM
26 | Cc1ccc(NC(=O)Nc2cc(-c3ccccc3-c3nnn[nH]3)ccc2N(CCCC(F)(F)F)Cc2ccc(Cl)cc2)cc1 [Example 320, 1-(4-((4-chlorobenzyl)(4,4,4-trifluorobutyl)amino)-2′-(1H-tetrazol-5-yl)-[1,1′-biphenyl]-3-yl)-3-(p-tolyl)urea] | 4.85 nM
27 | Cc1ccc(NC(=O)Nc2cc(-c3ccccc3-c3nnn[nH]3)ccc2N(Cc2ccccc2)CC(C)C)cc1 [Example 289, 1-(4-(Benzyl(isobutyl)amino)-2′-(1H-tetrazol-5-yl)-[1,1′-biphenyl]-3-yl)-3-(p-tolyl)urea] | 1210 nM
28 | Cc1ccc(NC(=O)Nc2cc(-c3ccccc3-c3nnn[nH]3)ccc2N(CC(C)C)CC(C)CC(F)(F)F)cc1 (stereo not drawn) [Example 27, 1-(4-(Isobutyl(4,4,4-trifluoro-2-methylbutyl)amino)-2′-(1H-tetrazol-5-yl)-[1,1′-biphenyl]-3-yl)-3-(p-tolyl)urea] | 2.55 nM
29 | Cc1ccc(NC(=O)Nc2cc(-c3ccccc3-c3nnn[nH]3)ccc2N2CCC(c3nc(C)no3)C2)cn1 (stereo not drawn) [Example 388] | 10000 nM
30 | Cc1ccc(NC(=O)Nc2cc(-c3ccccc3C(=O)O)ccc2N(CCC(F)(F)F)Cc2ccccc2)cc1 [Example 8, 4′-(Benzyl(3,3,3-trifluoropropyl)amino)-3′-(3-(p-tolyl)ureido)-[1,1′-biphenyl]-2-carboxylic acid] | 180 nM
31 | Cc1ccc(NC(=O)Nc2cc(-c3ccccc3-c3nnn[nH]3)ccc2N(CCC(F)(F)F)C2CCCCC2)cc1 [Example 195, 1-(4-(cyclohexyl(3,3,3-trifluoropropyl)amino)-2′-(1H-tetrazol-5-yl)-[1,1′-biphenyl]-3-yl)-3-(p-tolyl)urea] | 4.79 nM
32 | Cc1ccc(NC(=O)Nc2cc(-c3ccccc3C(=O)O)ccc2N(CCC(F)(F)F)Cc2ccccc2Cl)cc1 [Example 17, 4′-((2-Chlorobenzyl)(3,3,3-trifluoropropyl)amino)-3′-(3-(p-tolyl)ureido)-[1,1′-biphenyl]-2-carboxylic acid] | 270 nM
33 | O=C(Nc1ccc(OC(F)(F)F)cc1)Nc1cc(-c2ccccc2-c2nnn[nH]2)ccc1N(CCC(F)(F)F)Cc1ccc(C(F)(F)F)cc1 [Example 327, 1-(2′-(1H-tetrazol-5-yl)-4-((4-(trifluoromethyl)benzyl)(3,3,3-trifluoropropyl)amino)-[1,1′-biphenyl]-3-yl)-3-(4-(trifluoromethoxy)phenyl)urea] | 260 nM
34 | O=C(Nc1ccc(C(F)(F)F)cc1F)Nc1cc(-c2ccccc2-c2nnn[nH]2)ccc1N(CCC(F)(F)F)Cc1ccc(F)cc1C(F)(F)F [Example 300, 1-(4-((4-fluoro-2-(trifluoromethyl)benzyl) (3,3,3-trifluoropropyl)amino)-2′-(1H-tetrazol-5-yl)-[1,1′-biphenyl]-3-yl)-3-(2-fluoro-4-(trifluoromethyl)phenyl)urea] | 180 nM
35 | Cc1ccc(NC(=O)Nc2cc(-c3ccccc3-c3nnn[nH]3)ccc2N2CCC(c3nc(C)no3)C2)cc1 (stereo not drawn) [Example 389] | 620 nM
36 | CCN(c1ccc(-c2ccc(OC)c(C(=O)O)c2)cc1NC(=O)Nc1ccc(C)cc1)C1CCCC1 [Example 77, 4′-(cyclopentyl(ethyl)amino)-4-methoxy-3′-(3-p-tolylureido) biphenyl-3-carboxylic acid] | 3260 nM
